Earlier results as cited in patent publication US9511027B1, “Calcium supplement having enhanced absorption” (Delavau L.L.C., priority 2006, dated 2016).

Structure (SMILES): [Ca+2] [calcium]
- percent absorption (9 to 18 year olds, Wastney et al. 1996): 38%
- elemental calcium absorbed (adults, basis of the AIs of 1,000 mg and 1,200 mg, Heaney et al. 1988): about 30%
